The source of these data is patent US8242118B2, “Arylsulfonamide derivatives for use as CCR3 antagonists in the treatment of inflammatory and immunological disorders” (Axikin Pharmaceuticals Inc., priority 2001, dated 2012).

As a reminder, the melting point is the temperature of the solid-liquid transition. In general, IC50 refers to the concentration that gives 50% inhibition.

One data set has as its target T1, Human CCR3 (Homo sapiens, UniProt P51677).
T1 construct: The cloned CCR3 cDNA was constructed with pcDNA3 vector and transfected into a IC562 cell line; expressed in transfected cells
T1 sequence (P51677 1-355): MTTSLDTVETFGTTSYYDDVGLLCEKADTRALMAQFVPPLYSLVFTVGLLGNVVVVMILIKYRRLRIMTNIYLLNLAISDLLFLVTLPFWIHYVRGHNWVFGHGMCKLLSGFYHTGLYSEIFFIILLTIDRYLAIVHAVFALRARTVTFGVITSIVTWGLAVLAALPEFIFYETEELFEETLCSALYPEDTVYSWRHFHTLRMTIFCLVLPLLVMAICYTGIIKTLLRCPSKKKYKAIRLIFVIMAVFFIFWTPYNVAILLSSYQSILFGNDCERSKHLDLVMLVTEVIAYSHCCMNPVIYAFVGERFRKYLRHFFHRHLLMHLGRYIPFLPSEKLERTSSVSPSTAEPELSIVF
Put plainly: Calcium mobilization assay, eotaxin-stimulated. It counts as cell-based. The conditions noted are these: human CCR3-transformed K562 cells, 10 nM eotaxin; compounds of about 40 to 90% purity; read-out: Activity grade Ca2+ (IC50 class). In outline:
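K562 cells transfected with human CCR3, pretreated 20–24 h with 5 mM sodium butyrate, loaded with Fluo-3AM. Compound added 10 min before stimulation with 10 nM (final) eotaxin; cytoplasmic calcium read over 60 s by FDSS, IC50 from inhibition curve.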
For orientation: A change in cytosolic calcium serves as a functional read-out for many receptors and channels.

Molecule `Cl.Cl.O=[N+]([O-])c1ccc(Oc2cncc(Cl)c2)c(S(=O)(=O)N2CCNCC2)c1` [Example 1-55] displayed a melting point of 231 °C. For the same molecule, the IC50 at Human CCR3 is less than 1000 nM.

Molecule `Cl.O=[N+]([O-])c1ccc(Sc2cc(Cl)cc(Cl)c2)c(S(=O)(=O)NCC2CCNCC2)c1` [Example 2-8] yielded a melting point of 205 to 207 °C. Besides, the IC50 on Human CCR3 was less than 1000 nM.

Consider `Cl.O=[N+]([O-])c1ccc(Sc2cc(Cl)cc(Cl)c2)c(S(=O)(=O)N2CCNCC2)c1` [Example 2-18], for which the melting point lay in the range of 262 to 264 °C. In addition, the IC50 on Human CCR3 is less than 1000 nM.

Turning to `COCCCN1CCN(S(=O)(=O)c2cc([N+](=O)[O-])ccc2Sc2cc(Cl)cc(Cl)c2)CC1` [Example 2-9], the melting point was in the range of 131 to 133 °C. Moreover, the IC50 at Human CCR3 was less than 1000 nM.

As to `Cc1ccc([N+](=O)[O-])c(Oc2ccc([N+](=O)[O-])cc2S(=O)(=O)N2CCNCC2)c1.Cl` [Example 1-75], the melting point was 215 °C. Further, at Human CCR3, the half-maximal inhibitory concentration (IC50) was less than 1000 nM.

On to `Cl.O=S(=O)(c1c(F)cccc1Oc1cc(Cl)cc(Cl)c1)N1CCNCC1` [Example 1-59], for which the melting point came to 306 °C. The IC50 at Human CCR3 is less than 1000 nM.

In turn, `Cc1cc(C)c(Sc2ccc([N+](=O)[O-])cc2S(=O)(=O)N2CCNCC2)c(C)c1.Cl` [Example 2-15] registered a melting point of 274 °C. In addition, the IC50 at Human CCR3 lay in the range of 1000 to 10000 nM.

Molecule `Cc1cc(C)cc(Oc2ccc([N+](=O)[O-])cc2S(=O)(=O)N2C(C)CNCC2C)c1.Cl` (stereo not shown) [Example 1-94] returned a melting point greater than 300 °C. Moreover, the IC50 at Human CCR3 was less than 1000 nM.

The molecule `Cc1cc(O)cc(Oc2ccc([N+](=O)[O-])cc2S(=O)(=O)N2CCNCC2)c1.Cl` [Example 1-71] gave a melting point of 182 °C. The IC50 on Human CCR3 is less than 1000 nM.

Molecule `N#Cc1ccc(Oc2cc(Cl)cc(Cl)c2)c(S(=O)(=O)N2CCC[C@H]2CN2CCCC2)c1` [Example 13-3] showed a melting point of 144 to 145 °C. In addition, at Human CCR3, the IC50 was less than 1000 nM.

In turn, `Cl.O=[N+]([O-])c1ccc(Oc2ccc3c(c2)CCCC3)c(S(=O)(=O)N2CCNCC2)c1` [Example 1-72] displayed a melting point of 168 °C. The IC50 on Human CCR3 is less than 1000 nM.

`CN(C)CCN1CCN(S(=O)(=O)c2cc([N+](=O)[O-])ccc2Oc2cc(Cl)cc(Cl)c2)CC1` [Example 4-31] gave a melting point of 138 to 140 °C. The IC50 on Human CCR3 was less than 1000 nM.

`CCOC(=O)CCN1CCN(S(=O)(=O)c2cc([N+](=O)[O-])ccc2Sc2cc(Cl)cc(Cl)c2)CC1` [Example 2-6] showed a melting point of 156 to 158 °C. Further, at Human CCR3, the IC50 was less than 1000 nM.

Consider `Cl.Nc1cccc(Oc2ccc([N+](=O)[O-])cc2S(=O)(=O)N2CCNCC2)c1` [Example 1-67], for which the melting point stood at 248 °C. Besides, the IC50 at Human CCR3 is less than 1000 nM.

`O=[N+]([O-])c1ccc(Sc2cc(Cl)cc(Cl)c2)c(S(=O)(=O)N2CCN(CC3CCCO3)CC2)c1` (stereo not shown) [Example 2-2] yielded a melting point of 147 to 148 °C. Besides, the IC50 at Human CCR3 was less than 1000 nM.

Molecule `NCC1CCN(S(=O)(=O)c2cc([N+](=O)[O-])ccc2Sc2cc(Cl)cc(Cl)c2)CC1` [Example 2-7] registered a melting point of 147 to 149 °C. Besides, the IC50 at Human CCR3 was less than 1000 nM.

In turn, `Cl.N[C@@H]1CCN(S(=O)(=O)c2cc([N+](=O)[O-])ccc2Oc2cc(Cl)cc(Cl)c2)C1` [Example 1-99] showed a melting point of 247 to 250 °C. Moreover, the IC50 on Human CCR3 is less than 1000 nM.

For the molecule `CN1CCC(N2CCN(S(=O)(=O)c3cc([N+](=O)[O-])ccc3Oc3cc(Cl)cc(Cl)c3)CC2)CC1` [Example 4-32], the melting point was in the range of 167 to 169 °C. Further, the IC50 on Human CCR3 was less than 1000 nM.

As to `CN(C)CC(C)(C)CNS(=O)(=O)c1cc([N+](=O)[O-])ccc1Oc1cc(Cl)cc(Cl)c1` [Example 4-35], the melting point is 134 °C. The IC50 at Human CCR3 was less than 1000 nM.

`Cc1ccc(Oc2ccc([N+](=O)[O-])cc2S(=O)(=O)N2CCNCC2)cn1.Cl` [Example 1-70] showed a melting point of 237 °C. Besides, at Human CCR3, the IC50 was less than 1000 nM.
